Patent US12036190B2, “Methods and compositions for the treatment of cytoplasmic glycogen storage disorders” (Duke University, priority 2015, dated 2024)
Several values for one entry are separate records, joined by “and”; a condition that tells them apart may be missing. Identical values can stand only once. Entries after “also recorded” stand apart in the source; their conditions may differ. Blank lines part the entries; values can stand above or below the compound they belong to.

How the values were obtained:
[1] = system: G6pc−/− mice; experiment: Rapamycin treatment of GSD Ia (G6pc−/−) mice; type: in vivo; conditions: GSD Ia mouse livers, which began at 7-fold the levels of wildtype livers
Procedure: Candidate drugs for restoring autophagy in the GSD Ia liver were evaluated. Rapamycin is known to both have potent effects on activating autophagy as an mTORC1 inhibitor, and to regulate lipid metabolism due to its effect upon mTORC1. GSD Ia mice were treated with rapamycin daily for 7 days prior to evaluating effects upon autophagy and lipid accumulation in the liver.
G6pc−/− mice were given intraperitoneal injections of 5 mg/kg rapamycin suspended in 10% DMSO/90% PBS daily for 7 days starting on day 5 of life.
Treatment was sufficient to normalize G6pc−/− mice to the naturally low WT triglyceride levels.
Hepatic glycogen content was further analyzed using PAS staining to stain for polysaccharides, including glycogen, in liver sections. […] This confirms our hypothesis that manipulating autophagy can reduce glycogen accumulation by breaking it down through alternate routes from the traditional one relying on G6Pase, bypassing the need for G6Pase in GSD Ia hepatocytes.

[2] = system: patient with PRKAG2 pathogenic gene mutation; experiment: Alglucosidase alfa ERT in a patient with PRKAG2 mutation; type: in vivo, human
Source text: A patient was born by caesarian section at 38 weeks gestation as a result of the nuchal cord being wrapped around their neck. The patient was noted to have hypotonia and generalized muscle weakness. They were are flexic and had feeding difficulties. The patient began developing severe lower respiratory infections which led to frequent admissions to the hospital. […] Following numerous recurrent pneumonias, and the history of muscle weakness, the patient's physicians raised Pompe disease as a potential diagnosis. […] Given the early findings of hypotonia and the low GAA enzyme activity, a diagnosis of non-classic infantile Pompe disease was made. The patient was initiated on ERT with alglucosdase alfa at a dose of 20 mg/kg every 2 weeks.
[…], the patient started ERT. They were belly crawling asymmetrically and was unable to achieve sitting from a prone or supine position. Due to weakness in their neck and trunk flexors, the patient consistently sat with their trunk completely collapsed in kyphotic position and their head propped up in capital extension in a chin poke position. […] They were able to crawl more efficiently, to achieve sitting independently from a prone or supine position, and to pull themself up into a standing posture without aid. […] […], the patient was able to walk independently with an age appropriate gait pattern and to climb small steps as well as jump off them without support. They were also able to transition independently into and out of any position, which helped them participate more fully in activities appropriate for their age.
Baseline assessments were done which included tests for AST (44 IU/L; normal range: <45 IU/L), ALT (20 IU/L; normal range: 9-80 IU/L), along with PT measures looking at muscle strength and function measures. […] Upon examination, the patient has developed more defined calf muscles, along with an improvement of […] strength and power. […] has grown physically stronger and has not had episodes in which […] lacks energy for consecutive days, becomes completely floppy, and is unable to hold their head up properly following a seizure.
At baseline, according to the MABC assessment, the patient achieved a Total Test Score of 68 ranking them in the 25th percentile. Five months after reinitiation of ERT, the patient achieved a Total Test Score of 73 on […] MABC assessment, ranking them in the 37th percentile. A minimal detectable change (MDC) for the MABC has been reported as 1.21 points, representing a true change in motor function. The results in this child show an increase of 5 points over 5 months, which is greater than the minimal important difference (MID) of the MABC, which has been reported as a change of 2.5 points shown over 6 months.

[3] = system: primary muscle cells from GSD IIIa patients; experiment: rhGAA on primary muscle cells from GSD IIIa patients; type: cell-based, human; conditions: GSD IIIa patient muscle cells
Procedure: FIG. 32 illustrates an analysis of the skeletal muscle biopsies from two GSD IIIa patients, a person (Pt. 1) and a person (Pt. 2). […] (FIG. 32B) Under EM, occasional lysosomal glycogen 1 (identified at the end of arrow) was also seen in the myocytes (scale bar=1 μm). […] (FIG. 32E) GAA activity in normal and patient cells 48 h after adding recombinant human acid alpha-glucosidase (rhGAA, Myozyme*, alglucosidase alfa) treatment. […] The significance of differences between two different groups was assessed using the two-tailed, equal variance student T-test ([…]).

[4] = system: primary myoblasts from GSD IV mice; experiment: rhGAA on primary myoblasts from GSD IV mice; type: cell-based, mouse
Procedure: Primary myoblast cells were isolated from 7-day-old GSD IV mouse skeletal muscle. Early passage cells were seeded in 10-cm culture dishes with EMEM medium containing 10% FBS. When cells reached 90% confluence, rhGAA was added to the culture medium (final activity=1000 nmol/hr/ml). […]
Reduction of glycogen deposition in GSD IV mouse myoblasts by rhGAA treatment was also confirmed by immunofluorescence staining using a mouse anti-glycogen monoclonal antibody ESG1A9mAb.

[5] = system: GSD IV mice; experiment: rhGAA enzyme replacement therapy in GSD IV mice; type: in vivo, mouse
Procedure: (§1) Methods: A short-term study was conducted to determine the minimum effective dose (MED) of rhGAA treatment with 3 dosages: 20 mg/kg (human equivalent dose, n=6), 40 mg/kg (n=9), and 100 mg/kg (n=8). Male GSD IV mice received weekly intravenous injections of rhGAA were conducted for 4 week starting at age of 10 weeks. A group of age-matched untreated mice (n=8) were used as controls. To prevent anaphylactic reactions, the animals were administered 25 mg/kg diphenhydramine (i.p.) 10-15 min prior to enzyme administration. All mice were sacrificed 48 hours after the last injection following overnight fasting. Fresh tissues were immediately frozen and stored at −80° C. until use for GAA activity and glycogen content analyses. Protein concentration was measured using BCA method.

[6] = system: GSD III mice; experiment: rhGAA enzyme replacement therapy in GSD III mice; type: in vivo, mouse
Procedure: as §1, with “GSD III mice were used to test 3 dosages” for “A short-term study was conducted”, “treatment:” for “treatment with 3 dosages:”, “(n=6),” for “(human equivalent dose, n=6),”, “(n=5),” for “(n=9),”, “(n=7). Weekly” for “(n=8). Male GSD IV mice received weekly”

[7] = reassessment 5 months post ERT, initial 3
[8] = rhGAA 1000 nmol/hr/ml, 24 hours
[9] = weekly for 4 weeks at 20, 40 or 100 mg/kg, data not shown

Compound: CO[C@H]1C[C@@H]2CC[C@@H](C)[C@@](O)(O2)C(=O)C(=O)N2CCCC[C@H]2C(=O)O[C@H]([C@H](C)C[C@@H]2CC[C@@H](O)[C@H](OC)C2)CC(=O)[C@H](C)/C=C(\C)[C@@H](O)[C@@H](OC)C(=O)[C@H](C)C[C@H](C)/C=C/C=C/C=C/1C [Rapamycin, rapamycin]
reduction of hepatic triglycerides [1]: 50%

GAA activity in heart, increase ([5]; 20 mg/kg): 1.7 fold
GAA activity in liver, increase over untreated controls ([5]; 20 mg/kg weekly IV for 4 weeks): 29 folds
decrease of liver glycogen ([5]; 40 mg and 100 mg treatment): 21-25%
GAA activity in heart, increase ([5]; 40 mg/kg): 2.8 fold
change of glycogen content in liver ([5]; 40 mg/kg): −21%
GAA activity in liver, increase over untreated controls ([5]; 40 mg/kg weekly IV for 4 weeks): 48 folds
GAA activity in skeletal muscles, increase ([5]; 100 mg/kg): 1.6 folds
change of glycogen content in liver ([5]; 100 mg/kg): −25%
GAA activity in liver, increase over untreated controls ([5]; 100 mg/kg weekly IV for 4 weeks): 67 folds
GAA activity in quadriceps, increase ([5]; either dosage (20, 40 mg/kg)): negligible
GAA activity in gastrocnemius, increase ([5]; either treated group (20, 40 mg/kg)): less than 1 fold
decrease of liver glycogen ([6]; 40 mg and 100 mg treatment): 24-25%
GAA enzyme uptake, order of GAA activity by tissue ([6]; weekly IV for 4 weeks): liver>heart>diaphragm>leg muscles
Compound: rhGAA: recombinant human acid alpha-glucosidase (rhGAA, Myozyme, alglucosidase alfa), FDA approved therapy for Pompe disease
neurological, occupational therapy and physical therapy reports ([2]; after five months of reinitiated ERT): significant improvement
gross motor abilities ([2]; first ERT course, 20 mg/kg every 2 weeks, three months after initiation): began improving
Movement ABC increase of Total Score ([2]; over 5 months of ERT): 5 points
Movement ABC percentile increase ([2]; over 5 months of ERT): 12
Movement ABC Percentile ([2]; re-assessment 5 months on ERT, pre-ERT 25th percentile): 37 percentile and 37th percentile
Movement ABC Total Score ([2]; re-assessment 5 months on ERT, pre-ERT 68): 73
M-FUN Fine Motor Scaled Score [2, 7]: 5 (considered mild/borderline
M-FUN Gross Motor Scaled Score [2, 7]: 3 (considered very low/severe
M-FUN Visual Motor Scaled Score ([2]; reassessment 5 months post ERT, initial 6): 9 (considered “average” or
M-FUN Gross Motor Progress Score ([2]; reassessment 5 months post ERT, initial 288): 407
M-FUN Fine Motor Progress Score ([2]; reassessment 5 months post ERT, initial 292): 394
M-FUN Visual Motor Progress Score ([2]; reassessment 5 months post ERT, initial 374): 496
fatigue at assessment ([2]; reassessment at five months of ERT): less fatigue
glycogen content [3]: significantly reduced glycogen levels; also recorded: significantly reduced glycogen content; also recorded: significantly reduced glycogen concentration
reduction of glycogen (immunofluorescence, ESG1A9mAb) ([4]; 4 hours): obvious
reduction of glycogen (immunofluorescence, ESG1A9mAb) ([4]; 24 hours): more evident
decrease of glycogen content [4, 8]: 24%
increase of GAA activity [4, 8]: 50%
glycogen content ([4]; versus untreated cells): significantly reduced glycogen content; also recorded: significantly (p<0.01) reduced
glycogen content in tissues ([5]; 20 mg/kg): failed to reduce glycogen in any tissue; also recorded: not significant
liver/body weight ratio ([5]; 40 mg/kg, untreated 5.8±0.2%, p<0.05): 5.0±0.2%
plasma alanine aminotransferase (ALT) ([5]; 40 mg/kg, untreated 1029±87 U/L, p<0.01): 650±32 U/L
plasma aspartate aminotransferase (AST) ([5]; 40 mg/kg, untreated 1059±93 U/L, p=0.074): 849±50 U/L
glycogen content in skeletal muscle ([5]; 40 and 100 mg/kg): not in any skeletal muscle
anti-GAA antibodies compared with those reported in GAA-KO mice [5, 9]: significantly less
glycogen content in tissues ([6]; 20 mg treatment): did not affect glycogen content in any tissues
glycogen content in heart ([6]; 40 mg and 100 mg treatments): significantly reduced glycogen contents
glycogen content in liver ([6]; 40 mg and 100 mg treatments): significantly reduced glycogen contents
ratio of liver/body weight ([6]; 40 mg and 100 mg treatments): reduced ratio of liver/body weight
anti-GAA antibodies compared with those reported in GAA-KO mice [6, 9]: significantly less
